Experimental data: the NIST ThermoML archive (doi:10.1021/acs.jced.6b00269)
± gives the expanded uncertainty stated by the source.

Settings: for Normal melting temperature: Crystal, DTA; for viscosity / mass density: 101.33 kPa, Liquid; for viscosity: Cone and plate viscometry; for mass density: Vibrating tube method; for Glass transition temperature: DSC

SMILES	viscosity (278.15 K)	viscosity (283.15 K)	mass density (283.15 K)	viscosity (288.15 K)	mass density (288.15 K)	viscosity (293.15 K)	mass density (293.15 K)	mass density (295.15 K)	viscosity (298.15 K)	mass density (298.15 K)	viscosity (303.15 K)	mass density (303.15 K)	mass density (308.15 K)	mass density (313.15 K)	mass density (318.15 K)	mass density (323.15 K)	mass density (328.15 K)	mass density (333.15 K)	mass density (338.15 K)	mass density (343.15 K)	other results
CCC=C[P+](CC)(CC)CC.O=S(=O)([N-]S(=O)(=O)C(F)(F)F)C(F)(F)F	–	–	–	–	–	–	–	–	–	–	–	–	–	–	–	–	–	–	–	–	Normal melting temperature: 49 ± 2 °C
CCCCCCCCCCCCCC[P+](CCCCCC)(CCCCCC)CCCCCC.O=S(=O)([N-]S(=O)(=O)C(F)(F)F)C(F)(F)F	1210 ± 110 mPa·s	841 ± 71 mPa·s	1076.1 ± 6.3 kg/m3	594 ± 48 mPa·s	1072.4 ± 6.2 kg/m3	430 ± 33 mPa·s	1068.8 ± 6.2 kg/m3	1067.3 ± 6.2 kg/m3	318 ± 24 mPa·s	1065.1 ± 6.1 kg/m3	241 ± 17 mPa·s	1061.5 ± 6.1 kg/m3	1057.9 ± 6.1 kg/m3	1054.4 ± 6 kg/m3	1050.8 ± 6 kg/m3	1047.3 ± 5.9 kg/m3	1043.7 ± 5.9 kg/m3	1040.1 ± 5.9 kg/m3	1036.6 ± 5.8 kg/m3	1033 ± 5.8 kg/m3	viscosity (308.15 K): 185 ± 13 mPa·s; viscosity (313.15 K): 145 ± 10 mPa·s; viscosity (318.15 K): 115 ± 8 mPa·s; viscosity (323.15 K): 92 ± 6 mPa·s; viscosity (328.15 K): 76 ± 5 mPa·s; viscosity (333.15 K): 63 ± 4 mPa·s; mass density (348.15 K): 1029.5 ± 5.7 kg/m3; mass density (353.15 K): 1026 ± 5.7 kg/m3; Glass transition temperature: -82 ± 2 °C
CCCCCCCCSC(N(C)C)=[N+](C)C.O=S(=O)([N-]S(=O)(=O)C(F)(F)F)C(F)(F)F	356 ± 27 mPa·s	254 ± 19 mPa·s	1309.6 ± 9.4 kg/m3	186 ± 13 mPa·s	1305.2 ± 9.3 kg/m3	140 ± 10 mPa·s	1301 ± 9.2 kg/m3	1299.3 ± 9.2 kg/m3	108 ± 7 mPa·s	1296.7 ± 9.2 kg/m3	85 ± 6 mPa·s	1292.4 ± 9.1 kg/m3	1288.2 ± 9 kg/m3	1284 ± 9 kg/m3	1279.7 ± 8.9 kg/m3	1275.5 ± 8.9 kg/m3	1271.3 ± 8.8 kg/m3	1267.1 ± 8.8 kg/m3	1262.9 ± 8.7 kg/m3	1258.7 ± 8.6 kg/m3	viscosity (308.15 K): 69 ± 5 mPa·s; viscosity (313.15 K): 56 ± 4 mPa·s; mass density (348.15 K): 1254.6 ± 8.6 kg/m3; mass density (353.15 K): 1250.4 ± 8.5 kg/m3; Glass transition temperature: -82 ± 2 °C
CCCCCCSC(N(C)C)=[N+](C)C.O=S(=O)([N-]S(=O)(=O)C(F)(F)F)C(F)(F)F	268 ± 20 mPa·s	193 ± 14 mPa·s	1352.2 ± 10 kg/m3	143 ± 10 mPa·s	1347.8 ± 9.9 kg/m3	109 ± 7 mPa·s	1343.4 ± 9.8 kg/m3	1341.6 ± 9.8 kg/m3	85 ± 6 mPa·s	1339 ± 9.8 kg/m3	68 ± 5 mPa·s	1334.6 ± 9.7 kg/m3	1330.2 ± 9.7 kg/m3	1325.8 ± 9.6 kg/m3	1321.5 ± 9.5 kg/m3	1317.1 ± 9.5 kg/m3	1312.8 ± 9.4 kg/m3	1308.5 ± 9.3 kg/m3	1304.2 ± 9.3 kg/m3	1299.8 ± 9.2 kg/m3	viscosity (308.15 K): 55 ± 4 mPa·s; mass density (348.15 K): 1295.6 ± 9.2 kg/m3; mass density (353.15 K): 1291.3 ± 9.1 kg/m3; Glass transition temperature: -82 ± 2 °C
CCCCCC[n+]1ccn(C)c1.O=S(=O)([N-]S(=O)(=O)C(F)(F)F)C(F)(F)F	203 ± 14 mPa·s	150 ± 10 mPa·s	1386.6 ± 10 kg/m3	113 ± 8 mPa·s	1382.1 ± 10 kg/m3	87 ± 6 mPa·s	1377.5 ± 10 kg/m3	1375.7 ± 10 kg/m3	68 ± 5 mPa·s	1372.9 ± 10 kg/m3	55 ± 4 mPa·s	1368.4 ± 10 kg/m3	1363.8 ± 10 kg/m3	1359.3 ± 10 kg/m3	1354.8 ± 10 kg/m3	1350.3 ± 10 kg/m3	1345.8 ± 9.9 kg/m3	1341.3 ± 9.8 kg/m3	1336.8 ± 9.8 kg/m3	1332.4 ± 9.7 kg/m3	mass density (348.15 K): 1327.9 ± 9.6 kg/m3; mass density (353.15 K): 1323.5 ± 9.6 kg/m3
CCCC[S+]1CCCC1.O=S(=O)([N-]S(=O)(=O)C(F)(F)F)C(F)(F)F	284 ± 21 mPa·s	206 ± 15 mPa·s	1469 ± 12 kg/m3	153 ± 11 mPa·s	1464.3 ± 12 kg/m3	117 ± 8 mPa·s	1459.7 ± 12 kg/m3	1457.8 ± 12 kg/m3	91 ± 6 mPa·s	1455 ± 12 kg/m3	73 ± 5 mPa·s	1450.4 ± 12 kg/m3	1445.7 ± 11 kg/m3	1441.1 ± 11 kg/m3	1436.5 ± 11 kg/m3	1431.9 ± 11 kg/m3	1427.3 ± 11 kg/m3	1422.7 ± 11 kg/m3	1418.2 ± 11 kg/m3	1413.6 ± 11 kg/m3	viscosity (308.15 K): 59 ± 4 mPa·s; mass density (348.15 K): 1409.1 ± 11 kg/m3; mass density (353.15 K): 1404.6 ± 11 kg/m3; Glass transition temperature: -83 ± 2 °C
CCOCc1n(CC)cc[n+]1C.O=S(=O)([N-]S(=O)(=O)C(F)(F)F)C(F)(F)F	207 ± 15 mPa·s	149 ± 10 mPa·s	–	111 ± 8 mPa·s	–	85 ± 6 mPa·s	–	–	66 ± 4 mPa·s	–	53 ± 4 mPa·s	–	–	–	–	–	–	–	–	–	Glass transition temperature: -78 ± 2 °C
CC[P+](CC)(CC)COCCOC.Cc1ncc([N+](=O)[O-])[n-]1	567 ± 45 mPa·s	381 ± 29 mPa·s	–	264 ± 19 mPa·s	–	189 ± 13 mPa·s	–	–	140 ± 10 mPa·s	–	106 ± 7 mPa·s	–	–	–	–	–	–	–	–	–	viscosity (308.15 K): 83 ± 6 mPa·s; viscosity (313.15 K): 65 ± 4 mPa·s; viscosity (318.15 K): 53 ± 4 mPa·s; Glass transition temperature: -75 ± 2 °C
CC[P+](CC)(CC)COCCOC.O=S(=O)([N-]S(=O)(=O)C(F)(F)F)C(F)(F)F	84 ± 6 mPa·s	65 ± 4 mPa·s	1373.9 ± 10 kg/m3	51 ± 3 mPa·s	1369.4 ± 10 kg/m3	–	1364.8 ± 10 kg/m3	1363 ± 10 kg/m3	–	1360.3 ± 10 kg/m3	–	1355.7 ± 10 kg/m3	1351.2 ± 10 kg/m3	1346.8 ± 9.9 kg/m3	1342.3 ± 9.8 kg/m3	1337.9 ± 9.8 kg/m3	1333.4 ± 9.7 kg/m3	1329 ± 9.6 kg/m3	1324.6 ± 9.6 kg/m3	1320.2 ± 9.5 kg/m3	mass density (348.15 K): 1315.8 ± 9.4 kg/m3; mass density (353.15 K): 1311.5 ± 9.4 kg/m3
CC[P+](CC)(CC)COCCOC.O=[N+]([O-])c1cn[n-]c1	309 ± 23 mPa·s	216 ± 16 mPa·s	1149.2 ± 7.2 kg/m3	156 ± 11 mPa·s	1145.8 ± 7.1 kg/m3	116 ± 8 mPa·s	1142.4 ± 7.1 kg/m3	1141 ± 7.1 kg/m3	88 ± 6 mPa·s	1139 ± 7 kg/m3	69 ± 5 mPa·s	1135.6 ± 7 kg/m3	1132.2 ± 7 kg/m3	1128.9 ± 6.9 kg/m3	1125.5 ± 6.9 kg/m3	1122.2 ± 6.8 kg/m3	1118.9 ± 6.8 kg/m3	1115.6 ± 6.8 kg/m3	1112.3 ± 6.7 kg/m3	1109.1 ± 6.7 kg/m3	viscosity (308.15 K): 55 ± 4 mPa·s; mass density (348.15 K): 1105.8 ± 6.6 kg/m3; mass density (353.15 K): 1102.6 ± 6.6 kg/m3; Normal melting temperature: -15 ± 2 °C; Glass transition temperature: -76 ± 2 °C
